One data set deals with SARS-CoV-2 M^pro (Severe acute respiratory syndrome coronavirus 2, UniProt P0DTD1). In words: biochemical.
Data set [1] concerns the target T1, SARS-CoV-2 PL^pro (Severe acute respiratory syndrome coronavirus 2, UniProt P0DTD1). In words: biochemical. The class given is biochemical.
For data set [2], the system named is SARS-CoV-2 strain Slovakia/SK-BMC5/2020. In words: microbe, parasite or virus in culture. The class given is cell-based.
The subject of a further data set is VERO-E6 cells. Briefly: Cell viability MTT assay in VERO-E6 cells. As to conditions: VERO-E6 cell line, 72 h. The class given is cell-based, African Green Monkey. For orientation: Tetrazolium assays rely on reduction of a dye to a coloured formazan, in cell work by metabolically active cells.
Data set [3] concerns VERO-E6, Caco-2, PK-15, and A549 cells. Briefly: Cell viability MTT assay, averaged over screened cell lines. As to conditions: concentration causing >40% reduction in number of viable cells, 72 h, 0.5-30 µM, n/o = no cytotoxic effect observed within the concentration range.
Data set [4] has as its target T1, SARS-CoV-2 PL^pro. In words: biochemical.
In the next data set the test system is PL^pro. The conditions noted are these: read-out: IC50 deubiquitinase activity; drug repurposing study; cited from earlier work.
Data set [5] relates to severe COVID-19 and hospitalisation. Details: method as in PMID 34726479. The conditions noted are these: treatment started during the first days after appearance of symptoms; cited from earlier work.
Setting [6] is: read-out: IC50 Enzyme assay PA PL^pro, protease activity, 1 h at 37 °C, 1 mM DTT.
Where [7] appears, read: Severe acute respiratory syndrome coronavirus 2, Vero C1008, 72 h, read-out: EC50 Plaque reduction assay.
Setting [8] is: Severe acute respiratory syndrome coronavirus 2, Vero C1008, read-out: EC50 from the sigmoidal model (Figure 3 B1-B5).
The mark [9] stands for this setting: VERO-E6 cells, MOI 1.0, 72 h, 0.1-30 µM, n/o = no antiviral effect observed within the concentration range.
[10] abbreviates: Severe acute respiratory syndrome coronavirus 2, Vero C1008, VERO-E6 cells, MOI 1.0, 72 h, 0.1-30 µM, n/o = no antiviral effect observed within the concentration range, read-out: EC50 Plaque reduction assay.
The mark [11] stands for this setting: protease activity, 4 h at room temperature, 1 mM DTT, read-out: IC50 Enzyme assay PA M^pro.
Setting [12] is: protease activity, 1 h at 37 °C, 1 mM DTT, read-out: IC50 Enzyme assay PA PL^pro.
Where [13] appears, read: deubiquitinase activity, 1 h at 37 °C, 1 mM DTT, read-out: IC50 Enzyme assay DUA PL^pro.

Structures are written as SMILES. Values joined by “and” are separate entries in the source; they are usually repeats but may differ in a detail not shown here. Equal values may be shown once. Read-outs that look alike come from different tables or passages of the source. Some results are limits rather than exact numbers.

One may read the IC50 as the concentration that inhibits the measured activity by half. What is called EC50 is the midpoint of the concentration-response curve.

With `CC(C)C[C@H](NC(=O)OC1C/C(=C\c2ccc([N+](=O)[O-])cc2)C(=O)/C(=C/c2ccc([N+](=O)[O-])cc2)C1)C(N)=O` (stereo partly drawn) [Compound T120], the IC50 on SARS-CoV-2 M^pro was greater than 100 µM; on SARS-CoV-2 PL^pro [1] (setting [6]) it was less than 100 µM. Besides, the results for the EC50 in data set [2] (setting [7]) and in data set [2] (setting [8]) were 3.4 µM and 3.43 µM, respectively. Besides, in the data set with VERO-E6 cells, the “CTE in VERO-E6 cells” value was > 10 µM and 10 to 15 µM. Also, the “CTE Cell viability MTT assay” value in data set [3] was greater than 10.0 µM.
With `O=C1/C(=C/c2ccc([N+](=O)[O-])cc2)CC(O)C/C1=C\c1ccc([N+](=O)[O-])cc1` (stereo not drawn) [Compound T97], the IC50 against SARS-CoV-2 M^pro, against SARS-CoV-2 PL^pro [1] and against SARS-CoV-2 PL^pro [4] was greater than 100 µM in each case. Also, in the data set on VERO-E6 cells, the “CTE in VERO-E6 cells” value is “approximately 5 µM”. Also, the “CTE Cell viability MTT assay” value in data set [3] is greater than 5.0 µM.
Consider `NC(=O)[C@H](Cc1ccccc1)NC(=O)OC1C/C(=C\c2ccc([N+](=O)[O-])cc2)C(=O)/C(=C/c2ccc([N+](=O)[O-])cc2)C1` (stereo partly drawn) [Compound T121], for which the concentration for half-maximal inhibition (IC50) against SARS-CoV-2 M^pro, on SARS-CoV-2 PL^pro [1] and at SARS-CoV-2 PL^pro [4] was greater than 100 µM in each case. In addition, the EC50 came to 8.4 µM in data set [2] (setting [7]) and 8.39 µM in data set [2] (setting [8]). The “CTE in VERO-E6 cells” value with VERO-E6 cells was in the range of 10 to 15 µM. For the same molecule, the “CTE Cell viability MTT assay” value in data set [3] is greater than 10.0 to 15.0 µM.
On to `O=[N+]([O-])c1ccc(/C=C2\CC(O)C/C(=C\c3ccc([N+](=O)[O-])cc3)C2O)cc1` (stereo not drawn) [Compound T125], for which the IC50 on SARS-CoV-2 M^pro is greater than 100 µM; on SARS-CoV-2 PL^pro [1] (setting [6]) it was less than 100 µM. The “EC50 Plaque reduction assay” value in data set [2] (setting [9]) was “no antiviral effect was observed and did not show any inhibitory efficiency and no antiviral activity and n/o”. The “CTE Cell viability MTT assay” value in data set [3] was “no observed cytotoxic effect and n/o”.
As for `Cc1ccc(N)cc1C(=O)N[C@H](C)c1cccc2ccccc12` [Compound C9, GRL0617, reference compound], the EC50 in data set [2] (VERO-E6 cells, MOI 1.0, 72 h, 0.1-30 µM, n/o = no antiviral effect observed within the concentration range, read-out: EC50 Plaque reduction assay) came out at 2.5 µM.
Take `Cc1ccc(/C=C2\CNC/C(=C\c3ccc(C)cc3)C2=O)cc1` [NSC63283]: the IC50 with PL^pro was greater than 100 µM.
As for `CCC(CC)COC(=O)[C@H](C)N[P@](=O)(OC[C@H]1O[C@@](C#N)(c2ccc3c(N)ncnn23)[C@H](O)[C@@H]1O)Oc1ccccc1` [Compound C8, Remdesivir, reference compound], the EC50 in data set [2] (setting [10]) amounted to 1.8 µM. The “CTE Cell viability MTT assay” value in data set [3] is given as “n/o”.
As to `N[C@@H](Cc1ccccc1)C(=O)N1C/C(=C\c2ccc(Cl)c(Cl)c2)C(=O)/C(=C/c2ccc(Cl)c(Cl)c2)C1` [RA-190, reference compound], the IC50 on SARS-CoV-2 M^pro (setting [11]), on SARS-CoV-2 PL^pro [1] (setting [12]) and on SARS-CoV-2 PL^pro [4] (setting [13]) was greater than 100 µM each time. Besides, the EC50 in data set [2] (setting [10]) came to 3 µM.
For the molecule `N#CSc1cc(SC#N)c(N)nc1N` [Compound C4, PR-619, reference compound], the IC50 is 0.7 µM at SARS-CoV-2 M^pro (setting [11]), 0.1 µM at SARS-CoV-2 PL^pro [1] (setting [12]) and 0.2 µM at SARS-CoV-2 PL^pro [4] (setting [13]). The 50% effective concentration (EC50) in data set [2] (setting [7]) amounted to 9 µM. Moreover, the “CTE Cell viability MTT assay” value is greater than 10.0 µM in data set [3] and 5 to 10 µM in data set [3] (listed as PR-619).
Consider `NCCCNC(=O)OC1C/C(=C\c2ccc([N+](=O)[O-])cc2)C(=O)/C(=C/c2ccc([N+](=O)[O-])cc2)C1` (stereo not drawn) [Compound T98], for which the IC50 on SARS-CoV-2 M^pro was greater than 100 µM; on SARS-CoV-2 PL^pro [1] (setting [6]), less than 100 µM. For the same molecule, the values for the EC50 in data set [2] (setting [7]) and in data set [2] (setting [8]) were 6.7 µM and 6.69 µM, respectively. Besides, in the data set on VERO-E6 cells, the “CTE in VERO-E6 cells” value is > 15 µM and 10 to 15 µM. Also, in data set [3], the “CTE Cell viability MTT assay” value was greater than 15.0 to 30.0 µM.
In the case of `CC(C)(C)[C@H](NC(=O)C(F)(F)F)C(=O)N1C[C@H]2[C@@H]([C@H]1C(=O)N[C@H](C#N)C[C@@H]1CCNC1=O)C2(C)C` [nirmatrelvir], the “protection against severe COVID-19 and hospitalisation” value in data set [5] is reported as “approximately 90%”.
On to `O=C1/C(=C/c2ccc([N+](=O)[O-])cc2)CNC/C1=C\c1ccc([N+](=O)[O-])cc1` [RA-9, reference compound], for which the concentration for a half-maximal effect (EC50) in data set [2] (setting [7]) came out at 12.1 µM. In data set [3], the “CTE Cell viability MTT assay” value is on record as greater than 30.0 µM.
Regarding `CC(C)(C)OC(=O)NCCCC[C@H](NC(=O)OC1C/C(=C\c2ccc([N+](=O)[O-])cc2)C(=O)/C(=C/c2ccc([N+](=O)[O-])cc2)C1)C(=O)O` (stereo partly drawn) [Compound T105], the IC50 against SARS-CoV-2 M^pro, on SARS-CoV-2 PL^pro [1] and against SARS-CoV-2 PL^pro [4] was greater than 100 µM each time. In data set [2] (setting [7]), the EC50 is greater than 30 µM. For the same molecule, in data set [2] (setting [9]), the “EC50 Plaque reduction assay” value was “no antiviral effect was observed and n/o”. Further, the “CTE Cell viability MTT assay” value in data set [3] is “no observed cytotoxic effect and n/o”.
For `CC(C)C[C@@H](NC(=O)OCc1ccccc1)C(=O)N[C@@H](CC1CCNC1=O)C(O)S(=O)(=O)O` (stereo partly drawn) [Compound C10, GC376, reference compound], the EC50 in data set [2] (setting [10]) is 1 µM.
As for `COc1cc(/C=C2\CC(OC(=O)NCCCN)C/C(=C\c3ccc(O)c(OC)c3)C2=O)ccc1O` (stereo not drawn) [Compound T123], the IC50 at SARS-CoV-2 M^pro (setting [11]) is greater than 100 µM; at SARS-CoV-2 PL^pro [1] (setting [12]), 60 µM; on SARS-CoV-2 PL^pro [4] (setting [13]) it was 75 µM. In addition, in data set [2] (setting [9]), the “EC50 Plaque reduction assay” value was “no antiviral effect was observed and did not show any inhibitory efficiency and n/o”.
In the case of `CC(C)C[C@H](N)C(=O)NCCCNC(=O)OC1C/C(=C\c2ccc([N+](=O)[O-])cc2)C(=O)/C(=C/c2ccc([N+](=O)[O-])cc2)C1` (stereo partly drawn) [Compound T124], the IC50 against SARS-CoV-2 M^pro, against SARS-CoV-2 PL^pro [1] and at SARS-CoV-2 PL^pro [4] was greater than 100 µM in each case. The EC50 in data set [2] (setting [7]) and in data set [2] (setting [8]) was 15.9 µM in each case. Further, the “CTE in VERO-E6 cells” value in the data set with VERO-E6 cells is on record as greater than 30 µM. For the same molecule, the “CTE Cell viability MTT assay” value in data set [3] was greater than 30.0 µM.
For the molecule `NCCCNC(=O)OC1C/C(=C\c2ccc([N+](=O)[O-])cc2)C(O)/C(=C/c2ccc([N+](=O)[O-])cc2)C1` (stereo not drawn) [Compound T122], the IC50 was greater than 100 µM against SARS-CoV-2 M^pro and less than 100 µM on SARS-CoV-2 PL^pro [1] (setting [6]). The concentration giving a half-maximal response (EC50) in data set [2] (setting [7]) and in data set [2] (setting [8]) was 17 µM each time. Moreover, the “CTE in VERO-E6 cells” value in the data set with VERO-E6 cells is listed as greater than 30 µM. Also, in data set [3], the “CTE Cell viability MTT assay” value was greater than 30.0 µM.

Source of the values: PMC10791089, “Identification and evaluation of antiviral activity of novel compounds targeting SARS-CoV-2 virus by enzymatic and antiviral assays, and computational analysis” (Journal of Enzyme Inhibition and Medicinal Chemistry, 2024).
